Some test systems named below: OVCAR-5; SW-620; RXF 393; OVCAR-4; NCI-H226; U-251; A549; SK-MEL-28; SN12C; UACC-62; Malme-3M; SNB-19; HCT-15; SNB-75; SF-268; UACC-257; MDA-MB-435; MDA-N; NCI/ADR-RES.
Assay in all cases: inhibition of tumour cell growth, NCI panel, 48 h

Molecules are shown by their SMILES.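 Cultured in 96-well plates, cells were exposed to test compound for 48 hours across five concentrations. Here, GI50 denotes the concentration required for 50% inhibition of growth.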 Active and inactive are the calls of the source. Rule as the data show it: active = GI50 up to about 1.1 µM and inactive = higher.

As to `Oc1cc(-c2ccccc2)nc2cc(Cl)ccc12`, the GI50 in the experiment on OVCAR-5 was > 100 µM (inactive); with SW-620, 0.34 µM (active); in the experiment with RXF 393, 0.157 µM (active); in the experiment on OVCAR-4, 9.14 µM (inactive); in the experiment on NCI-H226, 7.67 µM (inactive); in the experiment with U-251 it was 0.509 µM (active). The GI50 with A549 was 0.515 µM (active); in the experiment on SK-MEL-28 it was 17.9 µM (inactive); in the experiment with SN12C, 3.3 µM (inactive); in the experiment on UACC-62, 0.294 µM (active); in the experiment with Malme-3M it was 0.42 µM (active); with SNB-19 it was 0.527 µM (active). The GI50 was 0.387 µM in the experiment with HCT-15, 0.352 µM (active) in the experiment with SNB-75, 1.21 µM (inactive) in the experiment with SF-268 and 14.1 µM (inactive) with UACC-257.
As for `O=C(CC1(O)C(=O)Nc2c(Cl)ccc(Cl)c21)c1ccc(Cl)cc1Cl` (centres undefined), the GI50 is 16.6 µM (inactive) with OVCAR-5; 14.1 µM (inactive) with SW-620; 25 µM (inactive) with RXF 393; 10.4 µM (inactive) in the experiment with OVCAR-4; 15.5 µM (inactive) in the experiment with NCI-H226; 10 µM (inactive) in the experiment with U-251. Also, the GI50 in the experiment on A549 is 23.5 µM (inactive); with SK-MEL-28 it was 21.7 µM (inactive); with SN12C, 16.6 µM (inactive); in the experiment with UACC-62, 16.1 µM (inactive); in the experiment on Malme-3M it was 20.4 µM (inactive); in the experiment on SNB-19, 32.2 µM (inactive). For the same molecule, the GI50 in the experiment on HCT-15 is 30.6 µM; in the experiment on SNB-75, 16.7 µM (inactive); in the experiment on SF-268 it was 27.6 µM (inactive); with UACC-257, 11.6 µM (inactive).
Consider `Cc1ccc(F)c2c(=O)cc(-c3ccccc3)[nH]c12`, for which the GI50 is > 100 µM (inactive) in the experiment with OVCAR-5; > 100 µM (inactive) in the experiment with SW-620; > 100 µM (inactive) with RXF 393; > 100 µM (inactive) in the experiment on OVCAR-4; 63 µM (inactive) with NCI-H226; > 100 µM (inactive) with U-251. For the same molecule, the GI50 is > 100 µM (inactive) in the experiment on A549; > 100 µM (inactive) in the experiment on SK-MEL-28; > 100 µM (inactive) with SN12C; > 100 µM (inactive) in the experiment on UACC-62; > 100 µM (inactive) in the experiment on Malme-3M; more than 100 µM with HCT-15. The GI50 in the experiment with SNB-75 is 26 µM (inactive); in the experiment on SF-268, > 100 µM (inactive); with UACC-257, > 100 µM (inactive).
With `O=C(/N=C(/Nc1ccccc1)SCCS/C(=N\C(=O)c1ccccc1)Nc1ccccc1)c1ccccc1`, the GI50 was > 100 µM (inactive) with OVCAR-5; > 100 µM (inactive) in the experiment with SW-620; 29.6 µM (inactive) in the experiment with RXF 393; 42.1 µM (inactive) with OVCAR-4; 66.5 µM (inactive) in the experiment with NCI-H226; 79.8 µM (inactive) with U-251. Further, the GI50 with A549 was 65.2 µM (inactive); in the experiment on SK-MEL-28, 49.8 µM (inactive); in the experiment with SN12C, 63.1 µM (inactive); in the experiment on UACC-62, 52.2 µM (inactive); in the experiment on Malme-3M it was > 100 µM (inactive); with SNB-19, 56.4 µM (inactive). The GI50 was 54.8 µM in the experiment with HCT-15, 29.5 µM (inactive) in the experiment with SNB-75, 41.5 µM (inactive) in the experiment on SF-268 and 42.5 µM (inactive) in the experiment on UACC-257.
For the molecule `CCOc1ccc(N(CC(=O)N2CC(=O)Nc3cc(C)c(C)cc32)C(C)=O)cc1`, the GI50 with OVCAR-5, in the experiment with SW-620, with RXF 393, with OVCAR-4, in the experiment with NCI-H226 and in the experiment on U-251 was > 100 µM (inactive) in each case. The GI50 in the experiment with A549, in the experiment on SK-MEL-28, in the experiment on SN12C, in the experiment on UACC-62, in the experiment with Malme-3M and in the experiment with SNB-19 was > 100 µM (inactive) in each case. In addition, the GI50 is more than 100 µM in the experiment on HCT-15, > 100 µM (inactive) in the experiment on SNB-75, 87.5 µM (inactive) in the experiment with SF-268 and > 100 µM (inactive) in the experiment with UACC-257.
As for `[O-][S+]1Cc2ccccc2CSS1` (centres undefined), the GI50 is 16.3 µM (inactive) with OVCAR-5; 13.6 µM (inactive) in the experiment on SW-620; 3.85 µM (inactive) with RXF 393; 16.6 µM (inactive) in the experiment with OVCAR-4; 27.2 µM (inactive) in the experiment on NCI-H226; 14.3 µM (inactive) with U-251. Moreover, the GI50 in the experiment on A549 was 19 µM (inactive); with SK-MEL-28, 13.8 µM (inactive); in the experiment with SN12C, 14.4 µM (inactive); in the experiment on UACC-62 it was 13 µM (inactive); with Malme-3M, 13 µM (inactive); in the experiment on SNB-19, 35.5 µM (inactive). The GI50 in the experiment on HCT-15 is 13 µM; in the experiment with SNB-75, 19.6 µM (inactive); in the experiment on SF-268 it was 23.9 µM (inactive); with UACC-257, 14.5 µM (inactive).
Consider `COC(=O)C1=CCS(=O)(=O)C1`, for which the GI50 in the experiment on OVCAR-5, in the experiment on SW-620, in the experiment with RXF 393, in the experiment with OVCAR-4, in the experiment on NCI-H226 and in the experiment with A549 was > 100 µM (inactive) each time. Further, the GI50 with SK-MEL-28 is > 100 µM (inactive); in the experiment on SN12C, > 100 µM (inactive); in the experiment with UACC-62 it was > 100 µM (inactive); in the experiment on Malme-3M, > 100 µM (inactive); with SNB-19 it was > 100 µM (inactive); with HCT-15, more than 100 µM. The GI50 in the experiment on SNB-75, with SF-268 and with UACC-257 was > 100 µM (inactive) in each case.
For `Cc1nc2c(O)cc3c4c([nH]c3c2nc1C)C(=O)CCC4`, the GI50 is 4.24 µM (inactive) with OVCAR-5; 0.541 µM (active) in the experiment with MDA-MB-435; 4.22 µM (inactive) with SW-620; 0.162 µM (active) in the experiment on RXF 393; 2.87 µM (inactive) in the experiment on OVCAR-4; 25.1 µM (inactive) in the experiment with NCI-H226. The GI50 in the experiment on U-251 was 2.16 µM (inactive); in the experiment on A549 it was 2.4 µM (inactive); in the experiment with MDA-N, 0.869 µM (active); in the experiment on SK-MEL-28 it was 2.8 µM (inactive); in the experiment on NCI/ADR-RES it was 34.6 µM (inactive); in the experiment with SN12C it was 4.49 µM (inactive). Also, the GI50 in the experiment with UACC-62 is 3.66 µM (inactive); in the experiment with Malme-3M it was 8.93 µM (inactive); in the experiment with SNB-19 it was 9.42 µM (inactive); in the experiment with HCT-15, 11.9 µM; in the experiment on SF-268 it was 2.96 µM (inactive); with UACC-257, 95.1 µM (inactive).
With `O=C(c1ccccc1)[C@H]1Nc2ccc(Cl)cc2[C@H]2c3ccccc3O[C@H]21`, the GI50 with OVCAR-5 was 16 µM (inactive); with SW-620, 16.5 µM (inactive); in the experiment with RXF 393, 10.1 µM (inactive); with OVCAR-4, 18.2 µM (inactive); in the experiment on NCI-H226, > 10 µM (inactive); in the experiment with U-251, 15.6 µM (inactive). In addition, the GI50 in the experiment on A549 is 14.6 µM (inactive); with SK-MEL-28 it was 12.3 µM (inactive); in the experiment with SN12C it was 14.1 µM (inactive); in the experiment on UACC-62, 13.6 µM (inactive); with Malme-3M, 15.8 µM (inactive); with SNB-19, 15.7 µM (inactive). For the same molecule, the GI50 is 14.4 µM with HCT-15, 12.4 µM (inactive) in the experiment on SNB-75, 18.1 µM (inactive) in the experiment on SF-268 and 2.45 µM (inactive) in the experiment with UACC-257.
On to `CCN(CC)CC(=O)/C=C/c1ccc(C)cc1`, for which the GI50 was 42.3 µM (inactive) in the experiment with OVCAR-5; 16.2 µM (inactive) in the experiment with SW-620; 24.3 µM (inactive) with RXF 393; 15.8 µM (inactive) with OVCAR-4; 22.1 µM (inactive) in the experiment on NCI-H226; 16.5 µM (inactive) with U-251. Also, the GI50 is 27 µM (inactive) in the experiment on A549; 23.8 µM (inactive) in the experiment on SK-MEL-28; 17.6 µM (inactive) in the experiment with SN12C; 17.3 µM (inactive) in the experiment on UACC-62; 19.5 µM (inactive) in the experiment with Malme-3M; 15.1 µM (inactive) in the experiment with SNB-19. Besides, the GI50 was 18.9 µM with HCT-15, 24.3 µM (inactive) with SNB-75, 27.9 µM (inactive) with SF-268 and 21.6 µM (inactive) with UACC-257.
Take `CC(=O)c1ccc(-c2oc(-c3ccccc3)cc2-c2ccc3c(c2)OCO3)s1`: the GI50 was > 100 µM (inactive) in the experiment on OVCAR-5; 3.07 µM (inactive) in the experiment on MDA-MB-435; > 100 µM (inactive) with SW-620; > 100 µM (inactive) with RXF 393; > 100 µM (inactive) in the experiment on NCI-H226; > 100 µM (inactive) in the experiment with U-251. Besides, the GI50 with NCI/ADR-RES is 49.7 µM (inactive); in the experiment with SN12C it was > 100 µM (inactive); in the experiment with UACC-62, > 100 µM (inactive); with SNB-75, > 100 µM (inactive); in the experiment with SF-268 it was 34.4 µM (inactive); in the experiment on UACC-257, > 100 µM (inactive).
On to `O=c1/c(=C/c2ccc(Cl)cc2Cl)sc2nc3ccccc3n12`, for which the GI50 with OVCAR-5, in the experiment with SW-620, in the experiment on RXF 393, with OVCAR-4, in the experiment with NCI-H226 and in the experiment with U-251 was > 100 µM (inactive) in each case. For the same molecule, the GI50 in the experiment with A549, in the experiment on SK-MEL-28, with SN12C, in the experiment on UACC-62, with Malme-3M and with SNB-19 was > 100 µM (inactive) throughout. The GI50 in the experiment with HCT-15 was more than 100 µM; in the experiment with SNB-75, > 100 µM (inactive); with SF-268, > 100 µM (inactive); in the experiment on UACC-257 it was > 100 µM (inactive).
With `CO[C@H]1CC[C@]2(C)C3=CC[C@@]4(C)C(CC[C@@H]4C(C)CC[C@@H](C)C(C)C)C(=CCC2C1)O3` (some centres undefined), the GI50 in the experiment on OVCAR-5 is > 25 µM (inactive); in the experiment with SW-620, > 25 µM (inactive); in the experiment with RXF 393, > 25 µM (inactive); with OVCAR-4, > 25 µM (inactive); in the experiment on NCI-H226 it was > 16.5 µM (inactive); in the experiment with U-251, > 25 µM (inactive). Moreover, the GI50 in the experiment on A549, with SK-MEL-28, in the experiment on SN12C, in the experiment with UACC-62, in the experiment with Malme-3M and in the experiment on SNB-19 was > 25 µM (inactive) throughout. Besides, the GI50 is more than 25 µM with HCT-15, > 25 µM (inactive) with SNB-75, > 25 µM (inactive) in the experiment with SF-268 and > 25 µM (inactive) with UACC-257.

For the origin of these results see ChEMBL document CHEMBL1201862, “PubChem BioAssay data set” (2004).
